How the values were obtained:
Type in all cases: cell-based
[1] = system: K. pneumoniae 3151; assay: Broth microdilution MIC (strain enzymes: SHV-12, TEM-1)
[2] = system: K. pneumoniae 153239; assay: Broth microdilution MIC (strain enzymes: SHV-11, TEM-1)
[3] = system: K. pneumoniae 170375; assay: Broth microdilution MIC (strain enzymes: SHV-12, CTX-M15 and TEM-1)
[4] = system: K. pneumoniae 304487; assay: Broth microdilution MIC (strain enzymes: SHV-12,TEM-1)
[5] = system: K. pneumoniae 319478; assay: Broth microdilution MIC (strain enzymes: SHV-12, CTX-M3 and TEM-1)
[6] = system: K. pneumoniae 329633; assay: Broth microdilution MIC (strain enzymes: SHV-5, TEM-1)

CCC(=O)N[C@H]1Cc2cccc(C(=O)O)c2OB1O [Compound 2, (R)-2-hydroxy-3-propionamido-3,4-dihydro-2H-benzo[e][1,2]oxaborinine-8-carboxylic acid]
MIC of cefalexin (LEX) ([1]; with inhibitor at 1 μg/mL): 2 µg/mL
MIC of cefdinir (CDR) ([1]; with inhibitor at 1 μg/mL): 2 µg/mL
MIC of cefixime (CFM) ([1]; with inhibitor at 1 μg/mL): 16 µg/mL
MIC of ceftibuten (CTB) ([1]; with inhibitor at 1 μg/mL): 1 µg/mL
MIC of cefalexin (LEX) ([1]; with inhibitor at 2 μg/mL): 1 µg/mL
MIC of cefdinir (CDR) ([1]; with inhibitor at 2 μg/mL): 1 µg/mL
MIC of cefixime (CFM) ([1]; with inhibitor at 2 μg/mL): 8 µg/mL
MIC of ceftibuten (CTB) ([1]; with inhibitor at 2 μg/mL): 0.25 µg/mL
MIC of cefalexin (LEX) ([1]; with inhibitor at 4 μg/mL): 0.5 µg/mL
MIC of cefdinir (CDR) ([1]; with inhibitor at 4 μg/mL): 0.5 µg/mL
MIC of cefixime (CFM) ([1]; with inhibitor at 4 μg/mL): 2 µg/mL
MIC of ceftibuten (CTB) ([1]; with inhibitor at 4 μg/mL): 0.25 µg/mL
MIC of cefalexin (LEX) ([2]; with inhibitor at 1 μg/mL): 0.5 µg/mL
MIC of cefdinir (CDR) ([2]; with inhibitor at 1 μg/mL): 0.5 µg/mL
MIC of cefixime (CFM) ([2]; with inhibitor at 1 μg/mL): 0.125 µg/mL
MIC of ceftibuten (CTB) ([2]; with inhibitor at 1 μg/mL): 0.06 µg/mL
MIC of cefalexin (LEX) ([2]; with inhibitor at 2 μg/mL): 0.25 µg/mL
MIC of cefdinir (CDR) ([2]; with inhibitor at 2 μg/mL): 0.25 µg/mL
MIC of cefixime (CFM) ([2]; with inhibitor at 2 μg/mL): 0.5 µg/mL
MIC of ceftibuten (CTB) ([2]; with inhibitor at 2 μg/mL): 0.125 µg/mL
MIC of cefalexin (LEX) ([2]; with inhibitor at 4 μg/mL): 0.25 µg/mL
MIC of cefdinir (CDR) ([2]; with inhibitor at 4 μg/mL): 0.25 µg/mL
MIC of cefixime (CFM) ([2]; with inhibitor at 4 μg/mL): 0.25 µg/mL
MIC of ceftibuten (CTB) ([2]; with inhibitor at 4 μg/mL): 0.06 µg/mL
MIC of cefalexin (LEX) ([3]; with inhibitor at 1 μg/mL): 8 µg/mL
MIC of cefdinir (CDR) ([3]; with inhibitor at 1 μg/mL): 8 µg/mL
MIC of cefixime (CFM) ([3]; with inhibitor at 1 μg/mL): 1 µg/mL
MIC of ceftibuten (CTB) ([3]; with inhibitor at 1 μg/mL): 0.06 µg/mL
MIC of cefalexin (LEX) ([3]; with inhibitor at 2 μg/mL): 4 µg/mL
MIC of cefdinir (CDR) ([3]; with inhibitor at 2 μg/mL): 4 µg/mL
MIC of cefixime (CFM) ([3]; with inhibitor at 2 μg/mL): 1 µg/mL
MIC of ceftibuten (CTB) ([3]; with inhibitor at 2 μg/mL): 0.06 µg/mL
MIC of cefalexin (LEX) ([3]; with inhibitor at 4 μg/mL): 2 µg/mL
MIC of cefdinir (CDR) ([3]; with inhibitor at 4 μg/mL): 2 µg/mL
MIC of cefixime (CFM) ([3]; with inhibitor at 4 μg/mL): 1 µg/mL
MIC of ceftibuten (CTB) ([3]; with inhibitor at 4 μg/mL): 0.06 µg/mL
MIC of cefalexin (LEX) ([4]; with inhibitor at 1 μg/mL): 1 µg/mL
MIC of cefdinir (CDR) ([4]; with inhibitor at 1 μg/mL): 1 µg/mL
MIC of cefixime (CFM) ([4]; with inhibitor at 1 μg/mL): 1 µg/mL
MIC of ceftibuten (CTB) ([4]; with inhibitor at 1 μg/mL): 0.25 µg/mL
MIC of cefalexin (LEX) ([4]; with inhibitor at 2 μg/mL): 1 µg/mL
MIC of cefdinir (CDR) ([4]; with inhibitor at 2 μg/mL): 1 µg/mL
MIC of cefixime (CFM) ([4]; with inhibitor at 2 μg/mL): 1 µg/mL
MIC of ceftibuten (CTB) ([4]; with inhibitor at 2 μg/mL): 0.25 µg/mL
MIC of cefalexin (LEX) ([4]; with inhibitor at 4 μg/mL): 2 µg/mL
MIC of cefdinir (CDR) ([4]; with inhibitor at 4 μg/mL): 2 µg/mL
MIC of cefixime (CFM) ([4]; with inhibitor at 4 μg/mL): 0.5 µg/mL
MIC of ceftibuten (CTB) ([4]; with inhibitor at 4 μg/mL): 0.25 µg/mL
MIC of cefalexin (LEX) ([5]; with inhibitor at 1 μg/mL): 4 µg/mL
MIC of cefdinir (CDR) ([5]; with inhibitor at 1 μg/mL): 4 µg/mL
MIC of cefixime (CFM) ([5]; with inhibitor at 1 μg/mL): 2 µg/mL
MIC of ceftibuten (CTB) ([5]; with inhibitor at 1 μg/mL): 0.125 µg/mL
MIC of cefalexin (LEX) ([5]; with inhibitor at 2 μg/mL): 2 µg/mL
MIC of cefdinir (CDR) ([5]; with inhibitor at 2 μg/mL): 2 µg/mL
MIC of cefixime (CFM) ([5]; with inhibitor at 2 μg/mL): 2 µg/mL
MIC of ceftibuten (CTB) ([5]; with inhibitor at 2 μg/mL): 0.25 µg/mL
MIC of cefalexin (LEX) ([5]; with inhibitor at 4 μg/mL): 2 µg/mL
MIC of cefdinir (CDR) ([5]; with inhibitor at 4 μg/mL): 2 µg/mL
MIC of cefixime (CFM) ([5]; with inhibitor at 4 μg/mL): 1 µg/mL
MIC of ceftibuten (CTB) ([5]; with inhibitor at 4 μg/mL): 0.125 µg/mL
MIC of cefalexin (LEX) ([6]; with inhibitor at 1 μg/mL): 0.25 µg/mL
MIC of cefdinir (CDR) ([6]; with inhibitor at 1 μg/mL): 0.25 µg/mL
MIC of cefixime (CFM) ([6]; with inhibitor at 1 μg/mL): 1 µg/mL
MIC of ceftibuten (CTB) ([6]; with inhibitor at 1 μg/mL): 0.06 µg/mL
MIC of cefalexin (LEX) ([6]; with inhibitor at 2 μg/mL): 0.25 µg/mL
MIC of cefdinir (CDR) ([6]; with inhibitor at 2 μg/mL): 0.25 µg/mL

Reference: patent publication US12544395B2, “Combination compositions comprising a beta-lactamase inhibitor and uses thereof” (priority 2018, dated 2026)
